Source: patent US20080125432A1 (Devgen NV, priority 2004, published 2008)
Like-named read-outs stand apart in the source and are kept apart here.

What was measured:
[1] = biological target: T1, human Kv4.3/KChIP2.2 potassium channel (Homo sapiens, UniProt Q9UK17); assay: Whole cell patch clamp, CHO-K1 cells stably expressing human Kv4.3/KChIP2.2; assay type: cell-based; settings: CHO-K1
T1 construct: expressed in transfected cells
T1 sequence (Q9UK17 1-655): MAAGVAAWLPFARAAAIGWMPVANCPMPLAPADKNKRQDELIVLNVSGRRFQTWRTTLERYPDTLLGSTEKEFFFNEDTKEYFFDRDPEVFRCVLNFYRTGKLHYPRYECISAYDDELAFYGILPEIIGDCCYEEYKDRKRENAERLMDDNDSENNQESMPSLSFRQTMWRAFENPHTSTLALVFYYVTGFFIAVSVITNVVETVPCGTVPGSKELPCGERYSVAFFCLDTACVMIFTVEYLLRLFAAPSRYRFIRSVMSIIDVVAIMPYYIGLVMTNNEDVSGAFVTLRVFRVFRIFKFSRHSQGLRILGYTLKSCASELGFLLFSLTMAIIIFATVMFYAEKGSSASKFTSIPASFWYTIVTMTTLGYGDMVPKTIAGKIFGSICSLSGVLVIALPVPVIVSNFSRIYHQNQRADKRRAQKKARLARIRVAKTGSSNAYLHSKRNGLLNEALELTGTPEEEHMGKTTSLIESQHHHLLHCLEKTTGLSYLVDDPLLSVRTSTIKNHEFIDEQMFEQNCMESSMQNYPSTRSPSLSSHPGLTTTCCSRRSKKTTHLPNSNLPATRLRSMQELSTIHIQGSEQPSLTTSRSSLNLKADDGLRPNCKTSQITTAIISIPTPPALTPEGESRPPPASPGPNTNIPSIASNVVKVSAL
Protocol: For this experiment, a recombinant CHO-K1 cell line stably expressing the human Kv4.3/KChIP2.2 potassium channel was used. The cells used for this experiment were kept in continuous culture under standard conditions (37° C., air supplemented with 7% CO2). The CHO-K1 Kv4.3/KChIP2.2 cells were kept in Iscove s modified DMEM (Dulbecco's Modified Eagle's Medium) medium (IMEM) supplemented with 100 U/ml Penicillin, 100 μg/ml Streptomycin, 7% fetal calf serum (FCS), 2.5 μg/ml amphotericin, 400 μg/ml G418, and 400 μg/ml Zeocin™. Cells were passed every 3-4 days after detachment using a Trypsin solution. The quality of the cultured cells was guaranteed by vitality and contamination tests. The culture of the cells was performed as described in protocol D hereunder.
10 mM stock solutions of the compounds were prepared in DMSO. Solutions of the compounds were prepared by dilution of stock solution in bath solution. If the required stock solution volume was theoretically below 1 μl, bath solutions with higher compound concentration were used for dilution. The maximal DMSO concentration during experiments was 0.1% (v/v).
Activity of the human Kv4.3/KChIP2.2 channel was investigated using the patch clamp technique in its whole cell mode. This means that the current needed for clamping the whole cell expressing the K^+-channel protein to a specific potential was measured. Experiments were performed using a patch clamp set-up. Technical equipment needed for manipulation of the cells was placed on a vibration-isolated table and shielded with a Faraday cage to minimize electrical noise. The amplifier and control system were placed in a rack outside the Faraday cage. The system consisted of an EPC9 or EPC10 patch clamp amplifier (HEKA, Lambrecht, Germany), and the perfusion system DADVC8 (ALA Scientific, New York, USA) controlled by the Pulse software package (HEKA, Lambrecht, Germany) installed on a personal computer. The pipettes used for patch clamping were made of borosilicate glass.
Measurements were performed at room temperature (20-25° C.). In each experiment (i.e. each cell) only one concentration of the compounds was investigated no cumulative dosages were performed. Each cell acted as its own control. […]
Between voltage pulses the cell was clamped to a holding potential of −80 mV (inside). The test protocols are illustrated in FIG. 1 and Table 4. The test protocol illustrated in FIG. 1a was used to characterize the properties of the Kv4.3/KChIP2.2 channel and to check the quality of the individual patch clamp experiment (voltage control). […] Each test protocol consisted of 4 segments.
After the whole cell configuration was established a current-voltage curve (IV activation 1; FIG. 1a and Table 4a) was recorded under constant superfusion with bath solution to check for Kv4.3/KChIP2.2 expression and the quality of the individual patch clamp experiment (voltage control). Subsequently, 14 test pulses (series 1; FIG. 1b and Table 4b) were applied at 0.1 Hz under constant superfusion with bath solution. The protocol was initiated by a voltage jump to 100 mV (400 ms) to achieve full inactivation. Then the Kv4.3/KChIP2.2 channels were transferred to the open state by depolarization to +40 mV for 300 milliseconds (activation). Only cells generating current amplitudes between 1 nA and 50 nA were used for the experimental procedure. No or negligible rundown was observed.
Then, 36 test pulses (series 2) were applied at 0.1 Hz under constant superfusion with the compound dissolved in bath solution. Finally, another current-voltage curve was recorded in the presence of the compounds (IV activation 2).
Three different types of analysis were used: Inhibition at the peak current, inhibition of translocated charge and inhibition 75 ms after activation at +40 mV (sustained current). The peak current/charge/current at 75 ms was determined using the online analysis tool of the HEKA pulse software package. […]

[2] = remaining current measured after application of the compound and relative to the blank, read-out: Kv4.3 charge in %
[3] = remaining peak height measured after application of the compound and relative to the blank, read-out: Kv4.3 peak in %

**Q.** Which melting point does the source give for `COc1ccccc1Nc1nc(C)c(C(=O)OCc2ccccc2)s1` [Compound 123, 2-(2-methoxy-phenylamino)-4-methyl-thiazole-5-carboxylic acid benzyl ester] here?
**A.** 98.4 to 100 °C

**Q.** What about the remaining activity at 1 µM [1, 2] of the same molecule?
**A.** 31%

**Q.** What about the remaining activity at 1 µM [1, 3] of the same molecule?
**A.** 72%

**Q.** Which results are given for `COc1ccccc1Nc1nc(C)c(C(=O)NC2Cc3ccccc3C2)s1` [Compound 83, 2-(2-methoxy-phenylamino)-4-methyl-thiazole-5-carboxylic acid indan-2-ylamide]?
**A.** melting point: 143.2 to 147.6 °C; remaining activity at 1 µM [1, 2]: 77%; remaining activity at 1 µM [1, 3]: 97%

**Q.** Which melting point does the source give for `COc1ccccc1Nc1nc(C)c(C(=O)NCc2ccc(Oc3ccccc3)cc2)s1` [Compound 102, 2-(2-methoxy-phenylamino)-4-methyl-thiazole-5-carboxylic acid 4-phenoxy-benzylamide] here?
**A.** 159.7 to 162.4 °C

**Q.** What about the remaining activity at 1 µM [1, 2] of the same molecule?
**A.** 76%

**Q.** What about the remaining activity at 1 µM [1, 3] of the same molecule?
**A.** 89%

**Q.** With `COc1ccccc1Nc1nc(C)c(C(=O)NCc2ccc(-c3cccs3)cc2)s1` [Compound 103, 2-(2-methoxy-phenylamino)-4-methyl-thiazole-5-carboxylic acid 4-thiophen-2-yl-benzylamide] as the molecule, how does the melting point read?
**A.** 195.6 to 198.6 °C

**Q.** What about the remaining activity at 1 µM [1, 2] of the same molecule?
**A.** 64%

**Q.** What about the remaining activity at 1 µM [1, 3] of the same molecule?
**A.** 89%

**Q.** Which melting point does the source give for `COc1ccccc1Nc1nc(C)c(C(=O)N[C@H](C(=O)O)c2ccccc2)s1` [Compound 114, (S)-{[2-(2-methoxy-phenylamino)-4-methyl-thiazole-5-carbonyl]-amino}-phenyl-aceticacid] here?
**A.** 259.6 to 262 °C

**Q.** What about the remaining activity at 1 µM [1, 2] of the same molecule?
**A.** 88%

**Q.** And the remaining activity at 1 µM [1, 3]?
**A.** 87%

**Q.** With `COc1ccccc1Nc1nc(C)c(C(=O)Nc2ccccc2)s1` [Compound 82, 2-(2-methoxy-phenylamino)-4-methyl-thiazole-5-carboxylic acid phenylamide] as the molecule, how does the melting point read?
**A.** 183.5 to 188.1 °C

**Q.** And the remaining activity at 1 µM [1, 2]?
**A.** 82%

**Q.** What about the remaining activity at 1 µM [1, 3] of the same molecule?
**A.** 91%

**Q.** What does the source list for `CCOC(=O)c1cccc(Nc2nc(C)c(C(=O)N[C@H]3CCC[C@@H]3OCc3ccccc3)s2)c1` [Compound 89, 3-[5-((1S,2S)-2-benzyloxy-cyclopent-1-ylcarbamoyl)-4-methyl-thiazol-2-ylamino]-benzoic acid ethyl ester]?
**A.** melting point: 145.7 to 148 °C; remaining activity at 1 µM [1, 2]: 55%; remaining activity at 1 µM [1, 3]: 93%

**Q.** Which melting point does the source give for `COc1ccccc1Nc1nc(C)c(C(=O)N2CCN(Cc3ccccc3)C[C@@H]2Cc2ccccc2)s1` [Compound 125, ((S)-2,4-dibenzyl-piperazin-1-yl)-[2-(2-methoxy-phenylamino)-4-methyl-thiazol-5-yl]-methanone] here?
**A.** 89.3 to 92.5 °C

**Q.** What about the remaining activity at 1 µM [1, 2] of the same molecule?
**A.** 74%

**Q.** What about the remaining activity at 1 µM [1, 3] of the same molecule?
**A.** 95%

**Q.** Which melting point does the source give for `COc1ccccc1Nc1nc(C)c(C(=O)N2CCC(c3ccccc3OC)CC2)s1` [Compound 165, [2-(2-methoxy-phenylamino)-4-methyl-thiazol-5-yl]-[4-(2-methoxy-phenyl)-piperidin-1-yl]-methanone] here?
**A.** 134.5 to 139 °C

**Q.** And the remaining activity at 1 µM [1, 2]?
**A.** 80%

**Q.** What about the remaining activity at 1 µM [1, 3] of the same molecule?
**A.** 100%

**Q.** With `COc1ccccc1Nc1nc(C)c(C(=O)NCCOCc2ccccc2)s1` [Compound 88, 2-(2-methoxy-phenylamino)-4-methyl-thiazole-5-carboxylic acid (2-benzyloxy-ethyl)-amide] as the molecule, how does the melting point read?
**A.** 44.6 to 47.6 °C

**Q.** And the remaining activity at 1 µM [1, 2]?
**A.** 85%

**Q.** And the remaining activity at 1 µM [1, 3]?
**A.** 95%

**Q.** Which melting point does the source give for `COc1ccccc1Nc1nc(C)c(C(=O)N2CCC(n3c(=O)[nH]c4ccccc43)CC2)s1` [Compound 170, 1-{1-[2-(2-methoxy-phenylamino)-4-methyl-thiazole-5-carbonyl]-piperidin-4-yl}-1,3-dihydro-benzoimidazol-2-one] here?
**A.** > 250 °C

**Q.** And the remaining activity at 1 µM [1, 2]?
**A.** 90%

**Q.** What about the remaining activity at 1 µM [1, 3] of the same molecule?
**A.** 97%

**Q.** With `COc1ccccc1Nc1nc(C)c(C(=O)N2CCc3ccccc3C2)s1` [Compound 85, (3,4-dihydro-1H-isoquinolin-2-yl)-[2-(2-methoxy-phenylamino)-4-methyl-thiazol-5-yl]-methanone] as the molecule, how does the melting point read?
**A.** 159.3 to 163.5 °C

**Q.** And the remaining activity at 1 µM [1, 2]?
**A.** 82%

**Q.** What about the remaining activity at 1 µM [1, 3] of the same molecule?
**A.** 96%

**Q.** Which results are given for `COc1ccccc1Nc1nc(C)c(C(=O)N2CCCCC2Cc2ccccc2)s1` (stereo not drawn) [Compound 86, (2-benzyl-piperidin-1-yl)-[2-(2-methoxy-phenylamino)-4-methyl-thiazol-5-yl]-methanone]?
**A.** melting point: 93.2 to 95.6 °C; remaining activity at 1 µM [1, 2]: 79%; remaining activity at 1 µM [1, 3]: 102%

**Q.** With `COc1ccccc1Nc1nc(C)c(C(=O)N2Cc3ccccc3C2)s1` [Compound 84, (1,3-dihydro-isoindol-2-yl)-[2-(2-methoxy-phenylamino)-4-methyl-thiazol-5-yl]-methanone] as the molecule, how does the melting point read?
**A.** 147.6 to 149.6 °C

**Q.** What about the remaining activity at 1 µM [1, 2] of the same molecule?
**A.** 87%

**Q.** What about the remaining activity at 1 µM [1, 3] of the same molecule?
**A.** 99%

**Q.** With `COc1ccccc1Nc1nc(C)c(C(=O)NCc2ccc(CNC(C)=O)cc2)s1` [Compound 96, 2-(2-methoxy-phenylamino)-4-methyl-thiazole-5-carboxylic acid 4-(acetylamino-methyl)-benzylamide] as the molecule, how does the melting point read?
**A.** 199.7 to 200.3 °C

**Q.** What about the remaining activity at 1 µM [1, 2] of the same molecule?
**A.** 85%

**Q.** And the remaining activity at 1 µM [1, 3]?
**A.** 99%

**Q.** Which results are given for `COc1ccccc1Nc1nc(C)c(C(=O)NCc2ccccc2)s1` [Compound 124, 2-(2-methoxy-phenylamino)-4-methyl-thiazole-5-carboxylic acid benzylamide]?
**A.** melting point: 153.6 to 156.2 °C; remaining activity at 1 µM [1, 2]: 90%; remaining activity at 1 µM [1, 3]: 95%

**Q.** Which melting point does the source give for `Cc1nc(NCc2ccccc2)sc1C(=O)N[C@H]1CCC[C@@H]1OCc1ccccc1` [Compound 211, 2-benzylamino-4-methyl-thiazole-5-carboxylic acid ((1S,2S)-2-benzyloxycyclopent-1-yl) amide] here?
**A.** 185.1 to 185.8 °C

**Q.** What about the remaining activity at 1 µM [1, 2] of the same molecule?
**A.** 86%

**Q.** And the remaining activity at 1 µM [1, 3]?
**A.** 98%

**Q.** Which results are given for `COc1ccccc1Nc1nc(C)c(C(=O)NCc2ccc(C)cc2)s1` [Compound 142, 2-(2-methoxy-phenylamino)-4-methyl-thiazole-5-carboxylic acid 4-methyl-benzylamide]?
**A.** melting point: 166.8 to 168.3 °C; remaining activity at 1 µM [1, 2]: 74%; remaining activity at 1 µM [1, 3]: 80%

**Q.** Which melting point does the source give for `COc1ccccc1Nc1nc(C)c(C(=O)NCc2ccsc2)s1` [Compound 118, 2-(2-methoxy-phenylamino)-4-methyl-thiazole-5-carboxylic acid (thiophen-3-ylmethyl)-amide] here?
**A.** 153.4 to 154.8 °C

**Q.** What about the remaining activity at 1 µM [1, 2] of the same molecule?
**A.** 85%

**Q.** What about the remaining activity at 1 µM [1, 3] of the same molecule?
**A.** 94%
